# Data published in the supplement of paper PMC10307832.
# Key:
# Assay in all cases: relative viability (nuclei count vs DMSO), 5 days (fraction); higher = more cells survive
# Dabrafenib + Phenformin = compound: CC(C)(C)c1nc(-c2cccc(NS(=O)(=O)c3c(F)cccc3F)c2F)c(-c2ccnc(N)n2)s1 [Dabrafenib] + N=C(N)NC(=N)NCCc1ccccc1 [Phenformin] (partner 250 µM)
# Outline: (§1)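 After 5 days of treatment, lung cancer cells in 1536-well plates were fixed and stained in a single step (final 0.05% Triton X-100, 1% formaldehyde, 1 ug/ml Hoechst) and their nuclei counted on 4× images. Treatment had been applied by pin tool the day after seeding as one drug alone or as a fixed anchor-drug dose with five library-drug doses (not always all listed) in √10 steps. Relative viability is the nuclei count of treated wells divided by that of vehicle wells, and values are medians of duplicate plates.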
# VX-702 + Trametinib = compound: NC(=O)c1ccc(N(C(N)=O)c2c(F)cccc2F)nc1-c1ccc(F)cc1F [VX-702] + CC(=O)Nc1cccc(-n2c(=O)n(C3CC3)c(=O)c3c(Nc4ccc(I)cc4F)n(C)c(=O)c(C)c32)c1 [Trametinib] (partner 0.02 µM)
# Outline: as §1
# VX-702 + Pictilisib = compound: NC(=O)c1ccc(N(C(N)=O)c2c(F)cccc2F)nc1-c1ccc(F)cc1F [VX-702] + CS(=O)(=O)N1CCN(Cc2cc3nc(-c4cccc5[nH]ncc45)nc(N4CCOCC4)c3s2)CC1 [Pictilisib] (partner 1 µM)
# Outline: as §1
# VX-702 + Vorinostat = compound: NC(=O)c1ccc(N(C(N)=O)c2c(F)cccc2F)nc1-c1ccc(F)cc1F [VX-702] + O=C(CCCCCCC(=O)Nc1ccccc1)NO [Vorinostat] (partner 1 µM)
# Outline: as §1
Cell Line,relative viability (Dabrafenib + Phenformin; first compound 0.003 µM),relative viability (Dabrafenib + Phenformin; first compound 0.009487 µM),relative viability (Dabrafenib + Phenformin; first compound 0.03 µM),relative viability (Dabrafenib + Phenformin; first compound 0.09487 µM),relative viability (Dabrafenib + Phenformin; first compound 0.3 µM),relative viability (VX-702 + Trametinib; first compound 0.02 µM),relative viability (VX-702 + Trametinib; first compound 0.2 µM),relative viability (VX-702 + Trametinib; first compound 0.6325 µM),relative viability (VX-702 + Trametinib; first compound 2 µM),relative viability (VX-702 + Pictilisib; first compound 0.02 µM),relative viability (VX-702 + Pictilisib; first compound 0.2 µM),relative viability (VX-702 + Pictilisib; first compound 0.6325 µM),relative viability (VX-702 + Pictilisib; first compound 2 µM),relative viability (VX-702 + Vorinostat; first compound 0.02 µM),relative viability (VX-702 + Vorinostat; first compound 0.2 µM),relative viability (VX-702 + Vorinostat; first compound 0.6325 µM),relative viability (VX-702 + Vorinostat; first compound 2 µM)
201T,0.423,0.428,0.372,0.41,0.465,0.733,0.756,0.744,0.774,0.698,0.634,0.676,0.668,0.966,0.956,1.09,1
A549,–,0.18,0.191,0.173,0.151,–,–,–,–,0.48,0.517,0.519,0.705,–,–,–,–
A-427,–,0.292,0.273,0.276,0.378,0.752,0.707,0.687,0.724,0.786,0.706,0.701,0.566,0.897,0.869,0.895,1.01
ABC-1,0.214,0.233,0.254,0.232,0.209,–,–,–,–,0.829,–,0.649,0.655,1.46,0.922,1.17,1.41
BEN,–,0.257,–,0.272,0.242,1.1,0.907,1.03,1.07,0.558,0.526,0.491,0.608,0.63,0.559,0.643,0.559
CAL-12T,0.584,0.51,0.601,0.572,0.677,0.368,0.371,0.321,0.329,0.482,0.185,0.536,0.534,0.688,0.744,0.725,1.04
COR-L23,0.466,0.425,0.431,0.396,0.431,0.715,0.602,0.686,0.69,0.908,0.855,0.772,1.06,0.511,0.47,0.46,0.491
COR-L 105,0.497,0.507,0.417,0.492,0.547,0.472,0.437,0.395,0.42,0.449,0.386,0.409,0.366,0.734,0.805,0.795,0.855
Calu-6,–,–,–,–,–,–,–,–,–,0.973,1.05,0.996,1.11,–,–,–,–
ChaGo-K-1,0.315,0.446,0.472,0.418,0.556,0.948,0.903,0.859,0.844,0.73,0.3,0.591,1.12,0.84,0.7,0.79,0.795
EBC-1,–,–,–,–,–,–,–,–,–,0.381,0.331,0.307,0.311,–,–,–,–
EKVX,0.147,0.227,0.187,0.196,0.236,0.241,0.291,0.307,0.281,0.408,0.351,0.35,0.358,0.823,0.671,0.676,0.696
EMC-BAC-2,0.518,0.563,0.364,0.418,0.548,0.914,0.921,0.842,0.725,0.547,0.555,0.508,0.432,0.477,0.427,0.496,0.427
EPLC-272H,0.211,0.331,0.406,0.267,0.332,0.296,0.279,0.279,0.273,0.321,0.303,0.33,0.353,0.401,0.571,0.535,0.438
H3255,0.345,0.444,0.338,0.391,0.383,0.488,–,0.581,0.662,0.553,0.48,0.462,0.479,0.757,–,0.598,0.866
HARA,0.448,0.46,–,0.364,0.511,0.818,–,0.776,0.63,0.361,0.412,0.325,0.332,0.527,0.51,0.542,0.449
HCC-15,0.461,0.461,0.528,0.401,0.382,0.345,0.364,0.322,0.294,0.731,0.644,0.643,0.749,0.813,0.803,0.854,0.858
HCC-44,–,0.173,0.183,0.227,0.235,1.11,1.06,1.05,1.1,0.726,0.552,0.479,0.522,1.17,1.09,1.19,1.16
HCC-78,–,0.866,0.704,0.614,0.667,0.53,0.861,0.741,0.801,0.224,0.17,0.176,0.237,0.393,0.486,0.427,0.543
HCC-366,0.325,0.672,0.539,0.483,0.612,0.341,0.314,0.269,0.266,0.132,0.148,0.154,0.113,0.402,0.38,0.427,0.133
HCC-827,0.31,0.447,0.354,–,0.385,0.55,0.501,0.515,0.425,0.856,0.701,0.99,0.355,0.879,0.799,0.885,0.827
HOP-62,0.518,0.604,0.627,0.491,0.495,0.419,0.397,0.469,0.45,0.852,0.652,0.597,0.683,0.869,0.697,0.744,0.817
IA-LM,–,–,–,–,–,–,–,–,–,0.298,0.324,0.265,0.352,0.937,0.936,0.853,0.878

Cell Line,relative viability (Dabrafenib + Phenformin; first compound 0.003 µM),relative viability (Dabrafenib + Phenformin; first compound 0.009487 µM),relative viability (Dabrafenib + Phenformin; first compound 0.03 µM),relative viability (Dabrafenib + Phenformin; first compound 0.09487 µM),relative viability (Dabrafenib + Phenformin; first compound 0.3 µM),relative viability (VX-702 + Trametinib; first compound 0.02 µM),relative viability (VX-702 + Trametinib; first compound 0.2 µM),relative viability (VX-702 + Trametinib; first compound 0.6325 µM),relative viability (VX-702 + Trametinib; first compound 2 µM),relative viability (VX-702 + Pictilisib; first compound 0.02 µM),relative viability (VX-702 + Pictilisib; first compound 0.2 µM),relative viability (VX-702 + Pictilisib; first compound 0.6325 µM),relative viability (VX-702 + Pictilisib; first compound 2 µM),relative viability (VX-702 + Vorinostat; first compound 0.02 µM),relative viability (VX-702 + Vorinostat; first compound 0.2 µM),relative viability (VX-702 + Vorinostat; first compound 0.6325 µM),relative viability (VX-702 + Vorinostat; first compound 2 µM)
LC-2-ad,–,0.594,0.587,0.517,0.621,0.948,0.916,0.921,0.97,0.472,0.45,0.446,0.433,0.693,0.678,0.773,0.803
LCLC-97TM1,0.339,0.398,0.415,0.328,0.259,0.197,0.192,0.185,0.202,0.148,0.21,0.121,0.192,0.732,0.787,0.782,0.878
LCLC-103H,0.304,0.35,0.328,0.345,0.331,0.723,0.743,0.665,0.711,0.638,0.621,0.666,0.613,0.813,0.799,0.835,0.839
LK-2,0.38,0.573,–,0.475,0.603,0.591,0.696,0.568,0.788,0.457,–,0.385,0.594,0.258,0.275,0.283,0.385
LOU-NH91,0.417,0.808,0.645,0.707,0.92,0.828,0.763,0.768,0.743,0.545,0.489,0.491,0.53,0.957,0.845,0.895,0.857
LU99A,0.907,0.883,0.887,0.862,0.671,0.563,0.532,0.512,0.5,0.316,0.297,0.292,0.318,0.412,0.452,0.49,0.485
LXF-289,0.364,0.511,0.487,0.493,0.542,0.718,0.648,0.691,0.703,0.85,0.785,0.818,0.784,0.816,0.765,0.811,0.786
NCI-H23,–,0.816,0.762,0.51,0.687,0.4,0.411,0.392,0.413,0.506,0.424,0.464,0.652,0.491,0.566,0.575,0.669
NCI-H322M,–,0.86,0.579,0.744,0.502,0.543,0.499,0.518,0.613,0.543,0.528,0.483,0.521,0.921,0.874,0.854,0.93
NCI-H358,0.193,0.457,0.467,0.344,0.419,0.147,0.143,0.126,0.143,0.352,0.343,0.301,0.323,0.675,0.601,0.669,0.972
NCI-H441,–,1.04,1,0.548,0.563,0.349,0.386,0.351,0.538,0.503,0.492,0.352,0.494,0.876,0.616,0.637,0.76
NCI-H460,0.523,0.533,0.52,0.497,0.46,0.209,0.172,0.166,0.0854,0.361,0.153,0.295,0.257,0.889,0.692,0.769,0.925
NCI-H520,0.431,0.638,0.289,0.442,0.612,0.712,0.799,0.589,0.649,0.282,0.216,0.25,0.306,0.744,0.649,0.691,0.74
NCI-H522,–,0.654,0.616,0.628,0.634,0.736,0.759,0.708,0.74,–,–,–,–,1.06,0.899,1.03,1.11
NCI-H596,–,1.11,0.65,0.687,0.748,0.908,0.832,0.835,0.886,0.398,0.246,0.392,0.389,0.636,0.439,0.637,0.581
NCI-H1299,–,–,–,–,–,–,–,–,–,0.802,0.65,0.554,0.547,–,–,–,–
NCI-H1563,0.622,0.667,0.653,0.752,0.748,–,–,–,–,0.685,0.626,0.594,0.625,–,–,–,–
NCI-H1648,–,–,–,–,–,0.395,0.579,0.593,0.435,–,–,–,–,0.242,0.271,0.397,0.364
NCI-H1703,–,–,–,–,–,–,–,–,–,0.229,0.277,0.218,0.263,–,–,–,–
NCI-H1792,–,0.485,0.198,0.34,0.202,0.425,0.394,0.397,0.482,0.228,0.222,0.22,0.247,–,–,–,–
NCI-H2342,0.444,0.599,0.546,0.653,0.612,0.686,1.01,0.871,0.835,–,–,–,–,0.717,0.956,0.832,0.867
SW 900,–,0.579,0.561,–,0.86,0.775,0.871,0.856,0.795,–,–,–,–,0.492,0.444,0.558,0.516
